“Also recorded” adds a separate entry of the source.
What was measured:
DAGL-α [1] = molecular target: T1, DAGL-α (Homo sapiens, UniProt Q9Y4D2); format: biochemical; settings: pre-incubated at IC80 concentration; MB064 labeling; n=3
T1 sequence (Q9Y4D2 1-1042): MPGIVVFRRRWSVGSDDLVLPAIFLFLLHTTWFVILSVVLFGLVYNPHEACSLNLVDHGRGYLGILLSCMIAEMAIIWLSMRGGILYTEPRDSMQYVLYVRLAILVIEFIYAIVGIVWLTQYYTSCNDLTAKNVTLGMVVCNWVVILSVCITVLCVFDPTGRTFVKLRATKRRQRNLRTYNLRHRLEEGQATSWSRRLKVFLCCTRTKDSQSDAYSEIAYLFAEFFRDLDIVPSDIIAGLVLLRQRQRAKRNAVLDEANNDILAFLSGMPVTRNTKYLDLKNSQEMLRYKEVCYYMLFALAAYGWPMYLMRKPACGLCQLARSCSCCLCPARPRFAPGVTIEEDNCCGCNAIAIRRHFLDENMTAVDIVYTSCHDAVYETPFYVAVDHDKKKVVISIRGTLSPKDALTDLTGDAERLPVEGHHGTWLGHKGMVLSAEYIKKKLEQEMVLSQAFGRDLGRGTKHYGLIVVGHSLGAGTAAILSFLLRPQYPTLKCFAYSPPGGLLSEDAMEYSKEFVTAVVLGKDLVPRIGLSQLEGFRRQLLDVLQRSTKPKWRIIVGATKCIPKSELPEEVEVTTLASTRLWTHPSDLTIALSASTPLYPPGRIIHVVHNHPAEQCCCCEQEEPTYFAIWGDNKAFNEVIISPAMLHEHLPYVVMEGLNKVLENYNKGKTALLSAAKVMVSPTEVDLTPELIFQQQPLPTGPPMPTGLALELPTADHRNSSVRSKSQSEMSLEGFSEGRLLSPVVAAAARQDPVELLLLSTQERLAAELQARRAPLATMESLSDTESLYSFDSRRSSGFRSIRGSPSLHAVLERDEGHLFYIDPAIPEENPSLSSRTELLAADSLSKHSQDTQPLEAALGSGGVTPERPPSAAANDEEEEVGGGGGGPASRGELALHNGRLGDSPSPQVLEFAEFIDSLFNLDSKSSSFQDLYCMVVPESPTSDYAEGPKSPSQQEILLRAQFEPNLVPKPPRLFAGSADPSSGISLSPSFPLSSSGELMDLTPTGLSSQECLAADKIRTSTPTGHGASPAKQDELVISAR

mouse liver = settings: cited from earlier work
FAAH [2] = molecular target: T2, FAAH (Mus musculus, UniProt O08914); assay: competitive ABPP with TAMRA-FP in mouse brain membrane proteome, FAAH labeling; format: binding
T2 sequence (O08914 1-579): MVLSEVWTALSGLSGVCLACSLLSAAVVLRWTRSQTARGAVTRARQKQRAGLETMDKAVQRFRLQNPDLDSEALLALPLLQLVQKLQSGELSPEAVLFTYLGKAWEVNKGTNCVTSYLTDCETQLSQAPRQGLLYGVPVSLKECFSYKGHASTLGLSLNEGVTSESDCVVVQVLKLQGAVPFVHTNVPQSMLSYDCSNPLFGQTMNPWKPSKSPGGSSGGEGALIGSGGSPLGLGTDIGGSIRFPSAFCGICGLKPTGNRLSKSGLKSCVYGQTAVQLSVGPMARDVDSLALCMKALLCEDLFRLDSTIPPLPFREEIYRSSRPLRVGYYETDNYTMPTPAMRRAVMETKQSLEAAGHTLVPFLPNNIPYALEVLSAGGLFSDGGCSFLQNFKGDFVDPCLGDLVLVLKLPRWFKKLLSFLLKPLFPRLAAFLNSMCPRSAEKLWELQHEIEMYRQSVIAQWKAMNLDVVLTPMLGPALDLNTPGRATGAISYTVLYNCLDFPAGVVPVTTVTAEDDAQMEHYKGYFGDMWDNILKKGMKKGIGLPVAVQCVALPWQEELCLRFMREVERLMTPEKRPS

DAGL-α [3] = molecular target: T1, DAGL-α; assay: real-time, fluorescence-based
DAGL-α [4] = molecular target: T1, DAGL-α; assay: colorimetric assay using para-nitrophenylbutyrate as a surrogate substrate; format: biochemical
DAGL-α [5] = molecular target: T1, DAGL-α; assay: radiometric assay using 1-[14C]oleoyl-2-arachidonoyl-sn-glycerol as substrate; format: biochemical; settings: 1-[14C]oleoyl-2-arachidonoyl-sn-glycerol 20 μm; n=2
hDAGL-β [6] = molecular target: T3, hDAGL-β (Homo sapiens, UniProt Q8NCG7); assay: competitive ABPP with MB064 on membranes of hDAGL-β transfected HEK293T cells; format: binding; settings: n=3
T3 sequence (Q8NCG7 1-672): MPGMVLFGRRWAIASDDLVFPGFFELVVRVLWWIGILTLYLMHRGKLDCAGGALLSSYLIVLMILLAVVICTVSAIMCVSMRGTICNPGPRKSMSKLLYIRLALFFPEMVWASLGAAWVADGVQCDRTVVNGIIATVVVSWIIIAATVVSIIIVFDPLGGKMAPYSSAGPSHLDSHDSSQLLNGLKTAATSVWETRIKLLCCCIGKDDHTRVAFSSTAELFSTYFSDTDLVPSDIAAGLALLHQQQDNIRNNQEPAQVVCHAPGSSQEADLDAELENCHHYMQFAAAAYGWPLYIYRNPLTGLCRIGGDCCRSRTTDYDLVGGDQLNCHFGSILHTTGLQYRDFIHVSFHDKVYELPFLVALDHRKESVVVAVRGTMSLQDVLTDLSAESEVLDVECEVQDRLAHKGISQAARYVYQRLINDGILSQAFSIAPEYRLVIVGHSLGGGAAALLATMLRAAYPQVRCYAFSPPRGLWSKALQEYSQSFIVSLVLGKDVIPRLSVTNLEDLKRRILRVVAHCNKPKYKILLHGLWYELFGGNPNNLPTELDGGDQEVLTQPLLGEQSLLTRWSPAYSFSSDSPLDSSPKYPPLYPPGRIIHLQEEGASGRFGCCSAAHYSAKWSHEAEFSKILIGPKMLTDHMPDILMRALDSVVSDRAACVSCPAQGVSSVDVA

hDAGL-β [7] = molecular target: T3, hDAGL-β; assay: biochemical assay with para-nitrophenylbutyrate as a surrogate substrate; settings: n=4
[8] = test system: endogenously expressed DAGL-β; assay: competitive ABPP with MB064 in mouse spleen membrane proteome; format: binding; settings: 10 μM, MB064 1.0 μM
serine hydrolases [9] = format: binding, mouse
serine hydrolases [10] = format: binding, mouse; settings: 10 μM, 30 min
DAGL-α [11] = format: binding, mouse; settings: 10 μM
recombinant human ABHD6 = molecular target: T4, recombinant human ABHD6 (Homo sapiens, UniProt Q9BV23); assay: biochemical assay using recombinant human ABHD6
T4 sequence (Q9BV23 1-337): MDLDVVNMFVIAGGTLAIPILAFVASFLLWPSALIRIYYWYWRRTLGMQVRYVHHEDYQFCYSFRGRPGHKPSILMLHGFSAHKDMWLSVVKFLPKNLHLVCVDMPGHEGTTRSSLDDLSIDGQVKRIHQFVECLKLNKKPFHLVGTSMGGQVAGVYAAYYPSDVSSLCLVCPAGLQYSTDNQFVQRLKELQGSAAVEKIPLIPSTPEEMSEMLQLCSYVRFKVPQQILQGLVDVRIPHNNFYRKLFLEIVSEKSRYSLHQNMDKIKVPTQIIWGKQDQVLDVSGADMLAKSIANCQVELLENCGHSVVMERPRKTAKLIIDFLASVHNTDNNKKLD

recombinant human MAGL = molecular target: T5, recombinant human MAGL (Homo sapiens, UniProt Q99685); assay: biochemical assay using recombinant human MAGL
T5 sequence (Q99685 1-303): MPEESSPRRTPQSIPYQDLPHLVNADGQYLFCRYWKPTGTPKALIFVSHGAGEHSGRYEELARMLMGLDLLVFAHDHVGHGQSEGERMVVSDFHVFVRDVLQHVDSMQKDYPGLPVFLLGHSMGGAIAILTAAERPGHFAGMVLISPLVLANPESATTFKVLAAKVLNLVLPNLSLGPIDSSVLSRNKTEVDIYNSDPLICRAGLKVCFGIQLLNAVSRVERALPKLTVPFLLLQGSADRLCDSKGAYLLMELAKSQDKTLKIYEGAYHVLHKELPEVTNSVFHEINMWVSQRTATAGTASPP

cannabinoid CB1 receptor = cannabinoid CB1 receptor (Homo sapiens, UniProt P21554); assay: cannabinoid CB1 receptor radioligand displacement assay; format: binding
endogenous DAGL-β = molecular target: T6, endogenous DAGL-β (Mus musculus, UniProt Q91WC9); assay: competitive ABPP with MB064 in Neuro2A proteome; format: binding; settings: Neuro2A proteome in vitro, n=3
T6 sequence (Q91WC9 1-669): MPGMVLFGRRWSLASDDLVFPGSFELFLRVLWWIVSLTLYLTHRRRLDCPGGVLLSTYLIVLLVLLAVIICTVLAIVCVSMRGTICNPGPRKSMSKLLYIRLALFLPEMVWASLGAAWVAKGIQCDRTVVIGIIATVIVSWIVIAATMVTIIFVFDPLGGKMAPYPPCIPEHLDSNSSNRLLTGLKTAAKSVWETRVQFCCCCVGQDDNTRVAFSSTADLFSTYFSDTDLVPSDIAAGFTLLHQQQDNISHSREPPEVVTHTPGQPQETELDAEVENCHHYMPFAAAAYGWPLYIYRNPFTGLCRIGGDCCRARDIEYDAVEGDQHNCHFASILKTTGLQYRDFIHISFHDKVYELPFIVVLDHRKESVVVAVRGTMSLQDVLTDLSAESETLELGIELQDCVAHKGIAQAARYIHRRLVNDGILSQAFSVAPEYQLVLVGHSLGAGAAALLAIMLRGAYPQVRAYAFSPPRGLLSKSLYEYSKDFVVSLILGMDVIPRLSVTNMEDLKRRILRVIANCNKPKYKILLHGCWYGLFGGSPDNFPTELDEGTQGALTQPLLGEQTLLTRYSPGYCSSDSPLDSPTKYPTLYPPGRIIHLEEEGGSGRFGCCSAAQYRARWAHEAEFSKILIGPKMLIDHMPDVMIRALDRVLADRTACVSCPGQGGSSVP

ABHD6 = assay: ABPP in Neuro2A proteome, ABHD6; format: binding, mouse
FAAH [12] = molecular target: T2, FAAH; assay: ABPP in Neuro2A proteome, FAAH; format: binding
Neuro2A cells = assay: targeted lipidomics after in situ treatment of Neuro2A cells; format: cell-based, mouse; settings: in situ 1h, 37 °C, n=4
human PC3 cells = assay: lipid levels in human PC3 cells; format: cell-based
[13] = test system: CA1 pyramidal neurons in hippocampal slices; assay: depolarization-induced suppression of inhibition; format: cell-based, mouse; settings: 10 μM

cannabinoid CB1 receptor, sequence (P21554 whole entry): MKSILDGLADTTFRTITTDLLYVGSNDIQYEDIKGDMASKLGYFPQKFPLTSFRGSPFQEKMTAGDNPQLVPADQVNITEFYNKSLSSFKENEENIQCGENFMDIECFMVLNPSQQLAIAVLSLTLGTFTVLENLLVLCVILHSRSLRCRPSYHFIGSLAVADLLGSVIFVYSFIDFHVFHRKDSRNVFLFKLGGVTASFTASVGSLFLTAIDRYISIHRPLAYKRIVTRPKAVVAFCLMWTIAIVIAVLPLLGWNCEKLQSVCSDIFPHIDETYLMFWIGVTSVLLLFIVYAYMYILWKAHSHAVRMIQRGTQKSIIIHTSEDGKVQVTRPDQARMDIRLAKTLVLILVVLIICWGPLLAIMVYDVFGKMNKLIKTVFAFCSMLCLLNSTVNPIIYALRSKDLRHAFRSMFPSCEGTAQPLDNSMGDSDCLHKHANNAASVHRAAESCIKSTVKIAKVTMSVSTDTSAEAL

O=C(N1CCCCC1Cc1ccccc1)n1cc(-c2ccc(-c3ccccc3)cc2)nn1 (centres unmarked) [KT-109, reference compound]
recovery of DAGL-α activity after size exclusion chromatography (DAGL-α [1]): No recovery
arachidonic acid levels (mouse liver): reduction

O=C(CCCCCc1ccccc1)c1nc2ncccc2o1 [LEI104]
IC50 (FAAH [2]): 0.0158 µM
IC50 (DAGL-α [3]): 0.501 µM

Cc1ccc(-c2cnc3nc(C(=O)CCCCCc4ccccc4)oc3c2)cc1 [LEI105]
fold more potent than LEI104 (DAGL-α [4]; para-nitrophenylbutyrate assay, vs LEI104): ~10 fold
pIC50 on human DAGL-α (DAGL-α [4]; para-nitrophenylbutyrate surrogate substrate, n=4): 8.5 ± 0.06
pIC50, radiometric assay (DAGL-α [5]): 6.6
pIC50 of hDAGL-β labeling by MB064 (hDAGL-β [6]): 7.4 ± 0.07
pIC50 on human DAGL-β (hDAGL-β [7]): 8.1 ± 0.07
inhibition of endogenous DAGL-β labeling/activity in spleen [8]: could be inhibited; also recorded: can block labeling
recovery of DAGL-α activity after size exclusion chromatography (DAGL-α [1]): reversibility
inhibition of labeling of other bands (TAMRA-FP and MB064) (serine hydrolases [9]; 10 μM): did not inhibit labeling of any other band
block of FAAH labeling (FAAH [2]; up to a concentration of 10 μM, TAMRA-FP, n=3): did not block FAAH labeling
reduction of labeling of the detected serine hydrolases, except DAGL-α (serine hydrolases [10]): ≤ 20%
reduction of DAGL-α labeling (DAGL-α [11]): over 70%
pKi on ABHD6 (recombinant human ABHD6): < 5
pKi on MAGL (recombinant human MAGL): < 5
displacement of 3H-CP55940 from the CB1 receptor (cannabinoid CB1 receptor; 10 μM): did not displace
pKi on cannabinoid CB1 receptor (cannabinoid CB1 receptor; radioligand displacement): < 5
pIC50 of DAGL-β labeling (endogenous DAGL-β): 7.3 ± 0.07
inhibition of ABHD6 (ABHD6): no inhibition
inhibition of FAAH (FAAH [12]): no inhibition
cellular 2-AG levels (Neuro2A cells): concentration-dependent reduction; also recorded: dose dependently decreased
cellular anandamide (AEA) levels (Neuro2A cells): unaffected; also recorded: constant
2-AG levels (human PC3 cells): reduced
arachidonic acid levels (human PC3 cells): reduced
substrate levels of DAGL (DAG species) (human PC3 cells): no change
DSI in hippocampal slices (in words) [13]: reduced
amplitude of stimulus-evoked inhibitory post-synaptic currents (IPSC) ([13]; pre-incubation and continuous application): 271 ± 22 pA
DSI, reduction in IPSC amplitude averaged over the first 15 sec after induction ([13]; n=15, p<0.05 vs control): 18 ± 7%
fold increase compared to LEI104 (DAGL-α [3]; natural substrate assay): 40 fold

CCCCCCCCCCC[C@@H](C[C@@H]1OC(=O)[C@H]1CCCCCC)OC(=O)[C@@H](NC=O)[C@@H](C)CC [OMDM-188, reference compound]
number of serine hydrolases whose labeling was blocked (serine hydrolases [9]; 1 μM, including ABHD6 and ABHD12): at least 4

Source: paper PMC4773911 (Journal of the American Chemical Society, 2015)
